Experimental findings from ChEMBL document CHEMBL1129258, “Synthesis and structure-activity relationships of 2-pyridones: a novel series of potent DNA gyrase inhibitors as antibacterial agents” (J Med Chem, 1996) are described below.

Values after ≈ are worked out from the molar mass of the structure shown.

Data set [1] deals with Pseudomonas aeruginosa. The data set is described as follows: In vivo efficacy against Pseudomonas aeruginosa 5007 by orally administered. It is filed as functional.
Data set [2] concerns Streptococcus pneumoniae. The data set is described as follows: In vivo efficacy against Strep. administered. It is filed as functional.
The subject of data set [3] is Streptococcus pneumoniae. The data set is described as follows: (§1) In vivo efficacy against Strep. administration. It is filed as functional.
Data set [4] is described as follows: In vitro antibacterial activity against gram-negative organism Pseudomonas aeruginosa DPHD-2862. Type of data set: functional.
Data set [5] is described as follows: (§2) In vitro antibacterial activity against gram-negative organism Pseudomonas aeruginosa 5007. It is filed as functional.
A short description of data set [6]: In vivo efficacy against Pseudomonas aeruginosa 5007 after subcutaneous administration. Type of data set: functional.
The target in data set [7] is T1, DNA gyrase (Escherichia coli) (UniProt P0AES6+P0AES4). In words: In vitro antibacterial activity against gram-negative organism […] ATCC 13048. Type of data set: functional. To be noted: Enterobacter aerogenes.
For data set [8], the system named is Pseudomonas aeruginosa. In words: In vivo efficacy against Pseudomonas aeruginosa 5007 following p.o. administration.
Data set [9] deals with T1, DNA gyrase (Escherichia coli). The data set is described as follows: In vitro antibacterial activity against gram-positive organism Enterococcus faecium ATCC 8043. It is filed as functional.
Data set [10] concerns the target T2, DNA gyrase (Staphylococcus aureus) (UniProt P0A0K8+P20831). The data set is described as follows: In vivo efficacy against Staphylococcus aureus NCTC-10649M after subcutaneous administration. It is filed as functional, organism-based.
Data set [11] addresses T1, DNA gyrase (Escherichia coli). In words: In vivo efficacy against Escherichia coli JUHL by subcutaneous administration. To be noted: Escherichia coli K-12. It is filed as functional, organism-based.
A short description of another data set: physchem. The following applies: phosphate buffer, pH 7.4.
Data set [12] has as its target T2, DNA gyrase (Staphylococcus aureus). In words: In vitro antibacterial activity against gram-positive organism Staphylococcus aureus 1775. Type of data set: functional.
A short description of data set [13]: in vivo. To be noted: rat, po, 5 mg/kg.
Description: Oral bioavailability in rat (dose 5 mg/kg)
Data set [14] has as its target T1, DNA gyrase (Escherichia coli). In words: In vitro antibacterial activity against gram-positive organism Streptococcus bovis A-5169. It is filed as functional. To be noted: Streptococcus equinus.
The target is the same in data set [15]. In words: In vitro antibacterial activity against gram-negative organism Prov. stuartii CMX-640. Type of data set: functional. The following applies: Providencia stuartii.
The target of data set [16] is T2, DNA gyrase (Staphylococcus aureus). In words: In vitro antibacterial activity against gram-positive organism Staphylococcus aureus NCTC-10649M. Type of data set: functional.
In data set [17] the target is T1, DNA gyrase (Escherichia coli). In words: In vitro antibacterial against gram-negative organism Escherichia coli JUHL. Type of data set: functional. The following applies: Escherichia coli K-12.
Data set [18] has the same target. In words: In vitro antibacterial activity against gram-negative organism Klebsiella pneumoniae ATCC 8045. Type of data set: functional.
Data set [19] has as its target T2, DNA gyrase (Staphylococcus aureus). In words: In vitro antibacterial activity against gram-positive organism Staphylococcus aureus ATCC 6538p. Type of data set: functional.
In data set [20] the target is T1, DNA gyrase (Escherichia coli). The data set is described as follows: In vivo efficacy against Escherichia coli JUHL after oral administration. Type of data set: functional, organism-based. To be noted: Escherichia coli K-12.
Data set [21] can be described thus: in vivo. The following applies: rat, plasma, po, 5 mg/kg.
The target in data set [22] is T1, DNA gyrase (Escherichia coli). The following applies: Escherichia coli K-12.
Description: Concentration which causes 50% of the gyrase (Escherichia coli H560)-mediated maximal DNA cleavage.
Data set [23] is described as follows: Maximum plasma concentration in rats after an oral dose of 5 mg/kg. To be noted: rat.
The subject of another data set is Streptococcus pyogenes. In words: In vitro antibacterial activity against gram-positive organism Streptococcus pyogenes EES61. It is filed as functional. The following applies: Streptococcus pyogenes; read-out: MIC.
For data set [24], the target named is T2, DNA gyrase (Staphylococcus aureus). The data set is described as follows: (§3) In vivo efficacy against Staphylococcus aureus NCTC-10649M after oral administration. It is filed as functional, organism-based.
The next data set relates to Enterococcus faecalis. The data set is described as follows: Inhibitory activity against enterococcus faecalis Van B. Type of data set: functional.
The test system of another data set is Enterococcus faecium. In words: Inhibitory activity against enterococcus faecium Van A. It is filed as functional.
Data set [25] deals with Streptococcus pneumoniae. The data set is described as §1. It is filed as functional. The source holds these as a separate data set.
The test system of the next data set is Escherichia coli. The data set is described as follows: In vivo efficacy against Escherichia coli JUHL by orally administered. To be noted: po. It is filed as functional.
In the next data set the test system is Staphylococcus aureus. Described as §3. It is filed as functional.
For data set [26], the system named is Pseudomonas aeruginosa. The data set is described as §2. Type of data set: functional.
The mark [27] stands for this setting: Streptococcus pneumoniae, read-out: ED50.
The mark [28] stands for this setting: Pseudomonas aeruginosa, read-out: MIC.

T2 sequence (P0A0K8 2-644 limits assumed): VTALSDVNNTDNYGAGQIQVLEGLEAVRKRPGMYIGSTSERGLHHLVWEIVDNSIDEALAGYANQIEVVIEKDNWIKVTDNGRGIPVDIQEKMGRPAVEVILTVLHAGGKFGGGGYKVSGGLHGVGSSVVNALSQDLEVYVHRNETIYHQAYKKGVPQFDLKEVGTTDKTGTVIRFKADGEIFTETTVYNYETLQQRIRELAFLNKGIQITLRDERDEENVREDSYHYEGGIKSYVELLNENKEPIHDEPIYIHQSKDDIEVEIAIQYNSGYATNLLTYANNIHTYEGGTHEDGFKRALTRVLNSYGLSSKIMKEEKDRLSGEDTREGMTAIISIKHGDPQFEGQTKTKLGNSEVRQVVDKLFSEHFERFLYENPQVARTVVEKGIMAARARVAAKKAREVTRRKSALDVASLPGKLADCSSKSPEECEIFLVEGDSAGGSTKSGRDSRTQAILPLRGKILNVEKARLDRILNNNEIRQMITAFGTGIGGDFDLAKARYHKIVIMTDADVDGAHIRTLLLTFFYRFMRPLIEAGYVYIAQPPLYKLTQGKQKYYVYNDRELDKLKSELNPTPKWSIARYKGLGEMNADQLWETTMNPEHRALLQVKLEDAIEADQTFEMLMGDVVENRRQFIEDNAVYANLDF
T2 sequence (P20831 whole entry partner): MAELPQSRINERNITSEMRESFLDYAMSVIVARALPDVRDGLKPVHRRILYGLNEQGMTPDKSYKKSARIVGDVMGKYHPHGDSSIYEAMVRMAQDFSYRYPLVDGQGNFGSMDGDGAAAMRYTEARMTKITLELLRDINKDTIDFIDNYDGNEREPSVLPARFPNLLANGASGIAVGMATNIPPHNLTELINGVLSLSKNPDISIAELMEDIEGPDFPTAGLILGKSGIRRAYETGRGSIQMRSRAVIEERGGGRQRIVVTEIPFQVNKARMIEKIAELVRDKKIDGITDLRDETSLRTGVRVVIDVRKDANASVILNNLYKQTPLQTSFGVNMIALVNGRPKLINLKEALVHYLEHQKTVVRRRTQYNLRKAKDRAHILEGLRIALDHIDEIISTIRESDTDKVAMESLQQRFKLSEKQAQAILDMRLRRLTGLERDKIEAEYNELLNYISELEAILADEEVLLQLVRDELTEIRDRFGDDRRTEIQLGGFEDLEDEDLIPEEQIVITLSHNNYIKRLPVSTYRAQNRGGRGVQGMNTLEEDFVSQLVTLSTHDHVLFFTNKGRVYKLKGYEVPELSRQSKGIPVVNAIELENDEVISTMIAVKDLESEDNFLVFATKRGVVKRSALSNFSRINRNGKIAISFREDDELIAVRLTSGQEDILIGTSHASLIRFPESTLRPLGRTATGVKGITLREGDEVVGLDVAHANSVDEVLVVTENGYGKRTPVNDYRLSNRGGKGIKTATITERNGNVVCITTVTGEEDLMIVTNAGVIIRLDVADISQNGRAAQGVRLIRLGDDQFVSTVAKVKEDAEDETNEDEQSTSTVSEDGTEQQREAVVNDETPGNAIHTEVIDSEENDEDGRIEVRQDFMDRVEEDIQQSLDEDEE
Description for physchem: Aqueous solubility in pH 7.4 phosphate buffer (0.05 M) at 37 degree C

`Cc1c(N2C[C@@H]3CCN[C@@H]3C2)c(F)cn2c(=O)c(C(=O)O)cc(C3CC3)c12` (stereo in doubt; (S,S)45o): the ED50 with Pseudomonas aeruginosa [1] is >50 mg/kg; with Streptococcus pneumoniae [2] it was 2.3 mg/kg; in the data set on Streptococcus pneumoniae [3] it was 11.2 mg/kg; in data set [6], 18 mg/kg. Also, the MIC in data set [4] was found to be 3.1 µg/mL (≈ 8.35 µM); in data set [5] it was 0.2 µg/mL (≈ 0.538 µM).
Consider `Cc1c(N2CC[C@@H]3CNC[C@@H]32)c(F)cn2c(=O)c(C(=O)O)cc(C3CC3)c12`, for which the MIC in data set [7] amounted to 0.05 µg/mL (≈ 0.135 µM); in data set [9] it was 0.1 µg/mL (≈ 0.269 µM); in [12], 6.2 µg/mL (≈ 16.7 µM); in data set [14] it was 0.1 µg/mL (≈ 0.269 µM); in data set [15], 1.56 µg/mL (≈ 4.2 µM); in [16], 0.05 µg/mL (≈ 0.135 µM). Also, the MIC in data set [4] (setting [28]) turned out to be 3.1 µg/mL (≈ 8.35 µM); in [17], 0.001 µg/mL (≈ 0.00269 µM); in data set [18] it was 0.02 µg/mL (≈ 0.0538 µM); in [19], 0.05 µg/mL (≈ 0.135 µM); in data set [5] (setting [28]), 0.39 µg/mL (≈ 1.05 µM); in the data set with Streptococcus pyogenes it was 0.1 µg/mL (≈ 0.269 µM). For the same compound, the ED50 came out at 42.8 mg/kg in the data set on Pseudomonas aeruginosa [8]; 1.8 mg/kg in [10]; 1.1 mg/kg in [11]; 6.4 mg/kg with Streptococcus pneumoniae [2] (setting [27]); 9.5 mg/kg with Streptococcus pneumoniae [3] (setting [27]); 3.6 mg/kg in [20]. For the same compound, the ED50 in data set [6] (Pseudomonas aeruginosa, sc, read-out: ED50) is > 8 mg/kg; in data set [24], 3.6 mg/kg. This compound also registered a solubility in the data set “physchem” of 1940 µg/mL (≈ 5220 µM). For the same compound, the bioavailability in the data set “in vivo [13]” was 41%. This compound showed a half-life in the data set “in vivo [21]” of 5.7 h. Further, in [22], the CC50 turned out to be 0.4 µg/mL (≈ 1.08 µM). The compound also returned a Cmax in data set [23] of 330 ng/mL.
With `Cc1c(N2CCC(N(C)C)C2)c(F)cn2c(=O)c(C(=O)O)cc(C3CC3)c12` (centres undefined), the MIC in data set [7] worked out at 0.1 µg/mL (≈ 0.268 µM); in [9], 0.1 µg/mL (≈ 0.268 µM); in the data set with Enterococcus faecalis it was 0.12 µg/mL (≈ 0.321 µM); against Enterococcus faecium, 1 µg/mL (≈ 2.68 µM); in data set [12] it was 0.78 µg/mL (≈ 2.09 µM); in [14] it was 0.39 µg/mL (≈ 1.04 µM). Moreover, the MIC in data set [15] turned out to be 3.1 µg/mL (≈ 8.3 µM); in data set [16], 0.05 µg/mL (≈ 0.134 µM); in data set [4] (setting [28]) it was 12.5 µg/mL (≈ 33.5 µM); in data set [17], 0.02 µg/mL (≈ 0.0536 µM); in data set [18] it was 0.02 µg/mL (≈ 0.0536 µM); in data set [19], 0.05 µg/mL (≈ 0.134 µM). In addition, the MIC in data set [5] (setting [28]) came out at 0.39 µg/mL (≈ 1.04 µM); in the data set with Streptococcus pyogenes, 0.1 µg/mL (≈ 0.268 µM). For the same compound, the ED50 in data set [10] is 4.7 mg/kg; in data set [11] it was 1.9 mg/kg; with Streptococcus pneumoniae [25] it was > 25 mg/kg; with Streptococcus pneumoniae [3] it was 44.1 mg/kg; in the data set with Escherichia coli it was > 10 mg/kg; in data set [24], 25 mg/kg.
`Cc1c(N2C[C@@H]3CCN[C@@H]3C2)c(F)cn2c(=O)c(C(=O)O)cc(C3CC3)c12` (stereo in doubt; 45o): the ED50 with Pseudomonas aeruginosa [1] (Pseudomonas aeruginosa, po, read-out: ED50) was 39.9 mg/kg; in the data set with Streptococcus pneumoniae [2] (setting [27]), 4.5 mg/kg; in the data set on Streptococcus pneumoniae [3] (setting [27]), 7.6 mg/kg; in [6], 6.4 mg/kg. In addition, the bioavailability in the data set “in vivo [13]” is 62%. Further, the MIC in data set [4] (setting [28]) stood at 6.2 µg/mL (≈ 16.7 µM); in data set [5] (setting [28]), 0.39 µg/mL (≈ 1.05 µM); in the data set on Streptococcus pyogenes, 0.05 µg/mL (≈ 0.135 µM). This compound showed a half-life in the data set “in vivo [21]” of 4.1 h. For the same compound, the peak level in [23] (Cmax) was 1130 ng/mL.
Turning to `Cc1c(N2CC[C@@]3(C[C@@H]3N)C2)c(F)cn2c(=O)c(C(=O)O)cc(C3CC3)c12`, the MIC amounted to 0.05 µg/mL (≈ 0.135 µM) in data set [7]; 0.05 µg/mL (≈ 0.135 µM) in [9]; 0.39 µg/mL (≈ 1.05 µM) in data set [12]; 0.39 µg/mL (≈ 1.05 µM) in data set [15]; 0.02 µg/mL (≈ 0.0538 µM) in data set [16]; 3.1 µg/mL (≈ 8.35 µM) in data set [4] (setting [28]). The MIC is 0.01 µg/mL (≈ 0.0269 µM) in [17]; 0.005 µg/mL (≈ 0.0135 µM) in data set [18]; 0.002 µg/mL (≈ 0.00538 µM) in [19]; 0.39 µg/mL (≈ 1.05 µM) in the data set with Pseudomonas aeruginosa [26]; 0.01 µg/mL (≈ 0.0269 µM) with Streptococcus pyogenes. Further, the ED50 in [10] was found to be 1.2 mg/kg; in the data set with Staphylococcus aureus, 6.3 mg/kg.
